Test results published in patent publication US5272268A, “Dipeptide derivatives” (Shionogi & Co., Ltd., priority 1990, dated 1993).
Numbering of substitutions follows the chain as printed. Blank lines part the entries; values can stand above or below the compound they belong to.

Assays:
[1] = molecular target: T1, intrinsic renin contained in the renatured human plasma (Homo sapiens, UniProt P00797); assay: Renin inhibition in vitro (angiotensin I production in renatured human plasma, RIA); type: biochemical; conditions: 60 minutes incubation, read-out: IC50 (concentration which inhibits renin activity by 50%)
T1 construct: intrinsic renin contained in the renatured plasma; tissue Ortho Bi-Level Plasma Renin Control; host or cells: human plasma (lyophilized, renatured in water)
T1 sequence (P00797 67-406): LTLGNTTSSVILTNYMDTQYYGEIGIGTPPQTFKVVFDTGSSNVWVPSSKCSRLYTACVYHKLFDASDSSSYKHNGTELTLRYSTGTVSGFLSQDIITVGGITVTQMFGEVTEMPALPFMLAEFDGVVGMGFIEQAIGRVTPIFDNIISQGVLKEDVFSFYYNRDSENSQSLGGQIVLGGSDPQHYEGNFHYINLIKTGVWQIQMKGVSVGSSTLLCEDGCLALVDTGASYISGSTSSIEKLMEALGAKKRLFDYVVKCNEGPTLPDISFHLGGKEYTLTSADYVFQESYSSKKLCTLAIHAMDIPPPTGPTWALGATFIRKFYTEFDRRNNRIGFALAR
Description: Commercially available lyophilized human plasma (Ortho, Bi-Level Plasma Renin Control) was renatured by dissolving in water. Angiotensinogen was allowed to react with intrinsic renin contained in the renatured plasma to generate angiotensin I (AI), which was quantitatively measured with radioimmunoassay (RIA). Thus, potency of the plasma renin was determined on the basis of the AI production. For this purpose, Renin RIA kit (RENIN' RIABEAD®) manufacture by Dinabott was used. All of the reagents necessary for the measurement of the AI production were available from the attachment of the kit, and the measurement was conducted according to the manufacturer's direction.
To the plasma (0.2 ml) were added all of the reagents, and the mixture was combined with either of sample solutions (0.002 ml) of various concentrations which had been prepared by dissolving a test compound in different amount of ethanol. Ethanol (0.002 ml) containing no test compound was used as a control solution. The amount of AI produced was measured after 60 minutes incubation. Renin inhibition potency of test compound was determined by comparing the amount of AI produced by a sample solution with that produced by a control solution.

Plasma renin activity = molecular target: T2, Plasma renin activity (Macaca fascicularis, UniProt Q6DLS0); assay: Renin inhibition in vivo (plasma renin activity after oral administration to hyperrenin monkeys); set-up: species or system Crab-eating monkeys (Cynomolgus monkeys); conditions: low sodium diet + furosemide; for Renin inhibition potency, 4 h: 4 h after administration; for Renin inhibition potency, 8 h: 8 h after administration
T2 construct: Two milliliters of blood was collected from femoral vein; from tissue; host or cells: plasma of cynomolgus monkeys made hyperreninemic by low sodium diet and furosemide
T2 sequence (Q6DLS0 67-406): T1 sequence (P00797 67-406) with T2A, I148L, S169A
Description: Crab-eating monkeys (Cynomolgus monkeys) (2.8-5.0 kg) were fed on low sodium diet (Na 7.15 mg/100 g feed) for six days, during which the monkeys intramuscularly received furosemide (2 mg/kg body weight) every other day from the second day of the experiment, in order to make the monkeys hyperrenin condition.
After seven days from the low sodium feeding, the monkeys were restrained on a monkey chair. Compounds to be tested are dissolved in 0.1 M citric acid/physiological saline or suspended in water with addition of β-cyclodextrin, and orally administered to the monkeys using a stomach probe (15 mg/kg body weight). […] For the blood collection, an injection syringe containing 30 μl of 6% aqueous EDTA·2Na solution was used. The collected blood was transferred into a test tube and centrifuged (3000 rpm, 10 minutes) at 4° C., and the resultant supernatant was used to determine the renin content. Plasma renin activity (AI(ng)/ml/h value) was measured using Radioimmunoassy kit commercially available from Dinabott Co. in the same manner as in the foregoing in vitro test. Renin inhibition potencies of the compounds tested, which were expressed as a percentage of renin activity relative to the activity before the administration, are listed in Table 12.

IC50 [1]: 3.75 nM
Compound: O=C(C[C@H](O)[C@H](CC1CCCCC1)NC(=O)[C@H](Cc1cscn1)NC(=O)[C@@H](CC(=O)N1CCOCC1)Cc1cccc2ccccc12)NCCN1CCOCC1 [ES-6864, reference compound]

Compound: CC(C)(C)S(=O)(=O)C[C@@H](Cc1ccccc1)C(=O)N[C@@H](Cc1c[nH]cn1)C(=O)N[C@@H](CC1CCCCC1)[C@@H](O)CC(=O)c1ccncc1 [Example 1, 3-t-Butylsulfonyl-2(S)-phenylmethylpropionyl-His-1(S)-cyclohexylmethyl-2(S)-hydroxy-4-oxo-4-(4-pyridyl)butylamide]
IC50 [1]: 6.09 nM | Renin inhibition potency, Max (Plasma renin activity; 30 mg/kg orally): 33% | Renin inhibition potency, Mean (Plasma renin activity; 30 mg/kg orally): 22% | Renin inhibition potency, 4 h (Plasma renin activity; 30 mg/kg orally): 22%

IC50 [1]: 39.2 nM
Compound: COc1ccc(C(=O)C[C@H](O)[C@H](CC2CCCCC2)NC(=O)[C@H](Cc2c[nH]cn2)NC(=O)[C@H](Cc2ccccc2)CS(=O)(=O)C(C)(C)C)cc1 [Example 22]

IC50 [1]: 14.5 nM
Compound: CC(C)S(=O)(=O)C[C@@H](Cc1ccccc1)C(=O)N[C@@H](Cc1c[nH]cn1)C(=O)N[C@@H](CC1CCCCC1)[C@@H](O)CC(=O)c1ccccc1 [Example 37]

IC50 [1]: 39.2 nM
Compound: CCS(=O)(=O)C[C@@H](Cc1ccccc1)C(=O)N[C@@H](Cc1c[nH]cn1)C(=O)N[C@@H](CC1CCCCC1)[C@@H](O)CC(=O)c1ccccc1 [Example 38]

IC50 [1]: 18.1 nM | Renin inhibition potency, Max (Plasma renin activity; 15 mg/kg orally): 44% | Renin inhibition potency, Mean (Plasma renin activity; 15 mg/kg orally): 30% | Renin inhibition potency, 4 h (Plasma renin activity; 15 mg/kg orally): 44%
Compound: O=C(C[C@H](O)[C@H](CC1CCCCC1)NC(=O)[C@H](Cc1c[nH]cn1)NC(=O)[C@@H](CC(=O)N1CCOCC1)Cc1cccc2ccccc12)c1ccccc1 [Example 40]

IC50 [1]: 13 nM
Compound: O=C(C[C@H](O)[C@H](CC1CCCCC1)NC(=O)[C@H](Cc1c[nH]cn1)NC(=O)[C@@H](CC(=O)N1CCOCC1)Cc1cccc2ccccc12)c1ccncc1 [Example 42]

IC50 [1]: 0.36 nM | Renin inhibition potency, Max (Plasma renin activity; 15 mg/kg orally): 96% | Renin inhibition potency, Mean (Plasma renin activity; 15 mg/kg orally): 85% | Renin inhibition potency, 4 h (Plasma renin activity; 15 mg/kg orally): 94% | Renin inhibition potency, 8 h (Plasma renin activity; 15 mg/kg orally): 73%
Compound: O=C(N[C@@H](CC1CCCCC1)[C@@H](O)CNS(=O)(=O)N1CCOCC1)[C@H](Cc1cscn1)NC(=O)[C@H](Cc1ccccc1)NS(=O)(=O)N1CCOCC1 [Example 53]

IC50 [1]: 0.7 nM | Renin inhibition potency, Max (Plasma renin activity; 15 mg/kg orally): 93% | Renin inhibition potency, Mean (Plasma renin activity; 15 mg/kg orally): 72% | Renin inhibition potency, 4 h (Plasma renin activity; 15 mg/kg orally): 82% | Renin inhibition potency, 8 h (Plasma renin activity; 15 mg/kg orally): 85%
Compound: CN(C)S(=O)(=O)NCC(O)C(CC1CCCCC1)NC(=O)C(Cc1cscn1)NC(=O)C(Cc1ccccc1)NS(=O)(=O)N1CCOCC1 (centres unmarked) [Example 56]

IC50 [1]: 1.24 nM
Compound: CC(C)(C)S(=O)(=O)C[C@@H](Cc1ccccc1)C(=O)N[C@@H](Cc1cscn1)C(=O)N[C@@H](CC1CCCCC1)[C@@H](O)CNS(=O)(=O)c1ccccc1 [Example 62]

IC50 [1]: 0.53 nM
Compound: CC(C)(C)S(=O)(=O)CC(Cc1ccccc1)C(=O)NC(Cc1cscn1)C(=O)NC(CC1CCCCC1)C(O)CNS(C)(=O)=O (centres unmarked) [Example 69]

IC50 [1]: 21.3 nM
Compound: CC(C)OC(=O)C(O)C(CC1CCCCC1)NC(=O)[C@H](Cc1cnc[nH]1)NC(=O)[C@@H](CC(=O)N1CCOCC1)Cc1cccc2ccccc12 (some centres unmarked) [KRI-1314, reference compound]
